What was measured:
[1] = test system: geese; assay: Deterrence of geese from loafing/roosting on grassy turf (Example 1); type: in vivo
Method: A formulation containing 50% wt., basis total formulation, of 9,10-anthraquinone dispersed in water with a small amount of surfactant and thickener was prepared and sprayed onto untreated grassy turf in an area where geese normally loaf or roost. One-third acre of turf was treated with areas of untreated turf bordering on both sides of the treated area. The dispersed anthraquinone particles were applied at a rate of 1 pint/acre (approximately 50 mg/m^2) on the treated area. […] The differences in the effects of the treated area versus the untreated area were easily noted. […] The geese were repelled from the treated area for approximately two weeks until the turf was cut. After cutting, another treatment was applied. The dispersed anthraquinone particles were applied at a rate of 1/2 pint/acre (approximately 25 mg/m^2) in the same manner of treating one strip of turf bordered by untreated turf. […] The test was continued for approximately two weeks. The test was concluded due to snow.

[2] = test system: geese; assay: Deterrence of geese from 6.2 acre grassy test site (Example 2); type: in vivo
Method: A grassy test site having an area of 6.2 acres was selected within the grounds of a large campus style research complex having a substantial flock of geese in residence, which numbers 250-300 geese during the day and as many as 500 geese in the evening hours. In order to determine when daily observations should be made, the site was observed beforehand to determine the times during which the maximum number of geese were on the test site. Observations were conducted at the same time(s) each day in such manner that the behavior of the geese could be observed without disturbance. In addition, the number of droppings in selected areas of the site were counted each day, recorded and then removed from the test area by raking.
Following 10 days observation of the untreated test site, the above-described goose repellent composition was sprayed on the test area using a calibrated spray tank and a fan-shaped head sprayer. The liquid spray contained one gallon of repellent per 140 gallons of water and the rate of application was 2.77 pounds of AQ per acre of the mixture. In the absence of rain, the applied composition fully dried on the blades of grass within 24 hours.

[3] = test system: seagulls; assay: Deterrence of seagulls from flat roof (Example 3); type: in vivo; conditions: 50% by weight aqueous dispersion of 9,10-anthraquinone
Text: (§1) In the following examples, the treating material was an aqueous dispersion of small particles of 9,10-anthraquinone containing 50% by weight of the anthraquinone and a small amount of surfactant.
A large number of seagulls regularly roosted on the flat roof of an industrial building in Northern California.

[4] = test system: crows; assay: Deterrence of crows from flat roof (Example 4); type: in vivo; conditions: 50% by weight aqueous dispersion of 9,10-anthraquinone
Text: as §1
In Philadelphia Pa., a large number of crows, estimated at over two hundred thousand, regularly roosted on the flat roof of an industrial building.

[5] = test system: pigeons; assay: Deterrence of pigeons from steel beams of aircraft hangar (Example 5); type: in vivo; conditions: 50% by weight aqueous dispersion of 9,10-anthraquinone
Text: as §1
Pigeons regularly roosted on the exposed steel beams within a large aircraft hangar in Wilmington Del.

[6] = test system: pigeons; assay: Deterrence of pigeons from metal beam of sports arena (Example 6); type: in vivo; conditions: four ounces of 50% dispersion in 29 gallons of water
Text: as §1
Four ounces of a 50% by weight dispersion of anthraquinone in water were mixed with 29 gallons of water. The mixture was sprayed on a twenty foot section of a metal beam in the superstructure of a large sports arena. The treated beam section was open to the atmosphere and had become a roost for pigeons. Prior to the treatment, a section of walkway beneath the beam was cleaned weekly of 50-60 bird droppings. After more than 30 days following treatment of the beam with the above-described dilute anthraquinone dispersion, the pigeons had not returned to the roosting site.

[7] = test system: red-winged blackbirds; assay: Avian perching deterrent test, red-winged blackbirds (Example 7); type: in vivo, Agelaius phoeniceus
Text: (§2) Two (2) pens (10×20×6 feet) constructed of wood and aviary wire in a roofed outdoor aviary with a concrete floor were erected. At one end of each pen a water bowl and a food bowl containing the birds' maintenance diet was provided. On the morning of day 1, the test birds were transferred from their holding cages to each of the test pens. In each pen, there was one centrally located perch. At 0800 on the morning of day 2, this perch was removed and 2 test perches were installed, one in each of the corners at the end of the pen away from the food and water. For red-winged blackbirds (Agelaius phoeniceus) and brown-headed cowbirds (Molothrus ater), the perches were made of aluminum rod, 1.2 m long and 1.0 cm in diameter. For fish crows (Corvus ossigragus), the test perches were hollow stainless steel pipe, 1.2-m long and 2.25 cm in diameter. One of the test perches (randomly determined) was coated with a product containing 50% AQ as the active ingredient (the "repellent"), and the other was uncoated. The repellent was applied to the perches with a paint brush 24-48 hours before the test. The repellent was easily applied and appeared somewhat like thinned paint. It covered the metal surfaces very well, with some streaking, and formed an opaque coating that was dry to the touch by the start of the trial. Approximately 7.5 g wet weight was applied to each crow perch and approximately 3.5 g to each blackbird/cowbird perch.
(§3) Test perches remained in the pens until 1500 on day 3 at which time the birds were captured, banded and released. The activity was videotaped in each pen during 3 30-min periods daily: 0800-0830, 1100-1130, and 1400-1430. The videotapes were reviewed to determine bird use of the perches. The number of birds on each of the test perches were recorded at 1-min intervals. Activity and locations of birds not on the perches was also noted. […]
(§4) To analyze responses of the birds to the perch treatment, the mean number of birds on each perch during each of the 6 30-min observation periods was used. The data are expressed as birds/min. […]

[8] = test system: brown-headed cowbirds; assay: Avian perching deterrent test, brown-headed cowbirds (Example 7); type: in vivo, Molothrus ater
Text: as §2, with “The repellent was applied to the perches with a paint brush 24-48 hours before the test. The repellent was easily applied and appeared somewhat like thinned paint. It covered the metal surfaces very well, with some streaking, and formed an opaque coating that was dry to the touch by the start of the trial. Approximately 7.5 g wet weight was applied to each crow perch and approximately 3.5 g to each blackbird/cowbird perch.” left out
Test perches remained in the pens until 1500 on day 3 at which time the birds were captured, banded and released. […] The number of birds on each of the test perches were recorded at 1-min intervals. […]
as §4

[9] = test system: fish crows; assay: Avian perching deterrent test, fish crows (Example 7); type: in vivo, Corvus ossigragus
Text: as §2, §3, §4

[10] = test system: birds; assay: Avian perching deterrent test, all 3 test species (Example 7); type: in vivo, red-winged blackbirds, brown-headed cowbirds, fish crows
Text: as §2
Test perches remained in the pens until 1500 on day 3 at which time the birds were captured, banded and released. The activity was videotaped in each pen during 3 30-min periods daily: 0800-0830, 1100-1130, and 1400-1430. The videotapes were reviewed to determine bird use of the perches. The number of birds on each of the test perches were recorded at 1-min intervals. Activity and locations of birds not on the perches was also noted. Five (5) groups of blackbirds and cowbirds and 4 groups of fish crows were tested. For blackbirds and cowbirds, there were 4 birds in each test group. For fish crows, we used 2 birds per pen.
To analyze responses of the birds to the perch treatment, the mean number of birds on each perch during each of the 6 30-min observation periods was used. The data are expressed as birds/min. A separate 2-way repeated measures analysis of variance for each of the 3 bird species was performed to test the null hypothesis of equal use between the two perches.

[11] = LD50 in northern bobwhite quail; conditions: in vivo, separate study
[12] = test system: birds; assay: Pen and field observations of bird behavior and adverse effects; type: in vivo
Text: Pen and field observations of bird behavior were made throughout the studies. In no situation were adverse effects or discomfort to the observed birds. In feeding on rice seeds, the birds squeezed the grain from the hull then ejected the hull from their mouths and ate only the inner grain.

[13] = treated on day 10, following a heavy rain

O=C1c2ccccc2C(=O)c2ccccc21 [9,10-anthraquinone]
repellency ([1]; 1/2 pint/acre (approximately 25 mg/m^2), after cutting, about two weeks): The same repellency was exhibited
behavior of geese that entered the treated area ([1]; 1 pint/acre (approximately 50 mg/m^2)): immediately ceased eating, exited the treated area, entered a nearby pond and began to wash or rinse themselves
goose count, second day after application ([2]; 2.77 pounds of AQ per acre, before treatment average about 150 geese): zero
goose count, day after application ([2]; 2.77 pounds of AQ per acre, before treatment average about 150 geese (45 to 305)): about 110 geese
period for which number of geese remained quite low in treated area vs surrounding untreated areas ([2]; following the treatment): more than 3 months
birds' behavior after treatment of the test area ([2]; in vivo): large numbers of birds were observed milling around, but not entering the treated area
number of geese, days 12-23 ([2]; treated on day 10): only a few geese were observed from time-to-time
number of geese, day 11 ([2]; treated on day 10 (over 300 geese), 2.77 pounds of AQ per acre): 109 geese
number of geese, day 12 ([2]; treated on day 10, 2.77 pounds of AQ per acre): zero
goose count, day 23 [2, 13]: 27 geese
number of droppings, day 23 [2, 13]: 13 droppings
number of geese, day 18 ([2]; treated on day 10, very low quantity of droppings): 18 geese
use of treated roof by gulls [3]: the gulls did not further use the surface for roosting
return of crows [4]: the crows did not return
return of pigeons [5]: the pigeons did not return
time following treatment during which pigeons had not returned to the roosting site [6]: more than 30 days
use of the treated perch ([7]; 50% AQ coating, SE=0.06, untreated perch 0.86 (SE=0.10), P=0.067): 0.41 birds/min
use of the untreated perch relative to treated perch ([7]; P=0.067): more than twice
use of treated perch from day 1 to day 2 ([7]; day x perch interaction P<0.001): decrease use of the treated perch from day 1 to day 2
use of the treated perch ([8]; 50% AQ coating, SE=0.14, untreated perch 1.70 (SE=0.23), P=0.015): 0.62 birds/min
bird use of each perch on the second day ([8]; day x perch interaction P=0.222): bird use of each perch declined on the second day
use of the treated perch ([9]; 50% AQ coating, SE=0.08, untreated perch 1.28 (SE=0.08), P=0.014): 0.64 birds/min
use of the untreated perch relative to treated perch ([9]; P=0.014): approximately twice
use of treated perch from day 1 to day 2 ([9]; day x perch interaction P=0.090): decreased use of the treated perch from day 1 to day 2
preference of test species ([10]; 2-day trials, perch coated with repellent vs untreated): each of the 3 test species displayed a preference for the untreated perch over the one coated with repellent
signs of illness on videotapes ([10]; e.g. decreased activity, fluffed feathers, vomiting): no sign of illness was observed
discomfort on the treated perch ([10]; in vivo): no indication that they were uncomfortable or bothered by the feel of the perch was observed
initial reluctance to use the treated perches ([10]; in vivo): No initial reluctance by birds to use the treated perches was observed
LD50 [11]: > 2000 mg/kg
irritation of birds exposed on food ([12]; exposed to anthraquinone on food): no sign of irritation
effect of treated seeds on birds' behavior or pain ([12]; feeding on treated rice seeds): did not affect the birds' behavior or induce pain
effect of consumption on feeding behavior ([12]; grams of feed per day): did not affect feeding behavior
death of test birds ([12]; upon completion of all studies): No test birds died

From patent publication US6328986A, “Method of deterring birds from plant and structural surfaces” (priority 2000, dated 2001)
